Source: US8030345B2, “Tricyclic pyrazole derivatives as cannabinoid receptor modulators” (Cadila Healthcare Limited, priority 2004, dated 2011)

Test system: rat
Assay: Intake of 5% sucrose solution in rat model
Format: in vivo
Conditions: intake of 5% sucrose solution in animal model (rat)
From the text: Compounds of the present invention in the cAMP accumulation model, antagonizes the WIN-55, 212-2 inhibition of forskolin-induced cAMP accumulation in hCB1-CHO cells [J Pharmacol. Exp Ther., 1998, 284, 291-297]. In a mouse vas deferens preparation, representative compounds cause rightward shift of the WIN-55, 212-2 concentration-response curve (Eur. J. Pharm. 1995, 284, 241-247). Representative compounds of the present invention have shown decrease in sucrose solution intake in rat model (Table 1) [Psychopharmacology, 1997, 132, 104-106].

Structure (SMILES)	Reduction in sucrose solution consumption w.r.t. control animals
O=C(NN1CCOCC1)c1nn(-c2ccc(Cl)cc2Cl)c2c1CCOc1cc(Cl)ccc1-2 [Compound 6, 8-chloro-1-(2,4-dichloro-phenyl)-4,5-dihydro-1H-6-oxa-1,2-diaza-benzo [e] azulene-3-carboxylic acid morpholine-4-yl-amide]	−24.9 ± 8.9
O=C(NN1CCCCC1)c1nn(-c2ccc(Cl)cc2)c2c1CCOc1cc(Cl)ccc1-2 [Compound 8, 8-chloro-1-(4-chloro-phenyl)-4,5-dihydro-1H-6-oxa-1,2-diaza-benzo [e] azulene-3-carboxylic acid piperidin-1-ylamide]	−30.4 ± 4.3
O=C(NN1CCC(O)CC1)c1nn(-c2ccc(Cl)cc2Cl)c2c1CCOc1cc(Cl)ccc1-2 [Compound 3]	−18.9 ± 14.0
O=C(NN1CC2CCCC2C1)c1nn(-c2ccc(Cl)cc2Cl)c2c1CCOc1cc(Cl)ccc1-2 (centres unmarked) [Compound 5, 8-chloro-1-(2,4-dichloro-phenyl)-4,5-dihydro-1H-6-oxa-1,2-diaza-benzo [e] azulene-3-carboxylic acid (hexahydro-cyclopenta[c]pyrrol-2-yl)-amide]	−23.2 ± 11.4
O=C(NN1CCCCC1)c1nn(-c2ccc(Cl)cc2Cl)c2c1CCCc1sc(Cl)cc1-2 [Compound 16]	−13.2 ± 15.7
